Structures can show the parent of a compound that is named as a salt. Where two headings read alike, the source gives them in different places.
What was measured:
Test in all cases: AK assay 384-well format, Prestwick library screening
[1] = system: A. baumannii strain 98-37-09; assay type: cell-based, Acinetobacter baumannii; settings: 50 μM final drug concentration; for fold induction at 50 µM: Acinetobacter baumannii, 983709, 3 h
E. faecium = assay type: cell-based, Enterococcus faecium; settings: 50 μM final drug concentration; for fold induction at 50 µM: Enterococcus faecium, 3 h
[2] = system: S. aureus strain USA300-0114; assay type: cell-based, Staphylococcus aureus; settings: 50 μM final drug concentration; for fold induction at 50 µM: Staphylococcus aureus, USA300, 3 h
E. cloacae = assay type: cell-based, Enterobacter cloacae; settings: 50 μM final drug concentration; for fold induction at 50 µM: Enterobacter cloacae, 3 h
E. coli = assay type: cell-based, Escherichia coli; settings: for fold induction at 50 µM: Escherichia coli, 3 h
P. aeruginosa = assay type: cell-based, Pseudomonas aeruginosa; settings: 50 μM final drug concentration; for fold induction at 50 µM: Pseudomonas aeruginosa, 3 h
K. pneumoniae = assay type: cell-based, Klebsiella pneumoniae; settings: 50 μM final drug concentration; for fold induction at 50 µM: Klebsiella pneumoniae, 3 h
[3] = cutoff for positive-scoring molecules 3-fold increase, read-out: AK-based Prestwick Library Screening Results, A. baumannii (fold increase in extracellular AK activity)
[4] = cutoff for positive-scoring molecules 3-fold increase, read-out: AK-based Prestwick Library Screening Results, E. faecium (fold increase in extracellular AK activity)
[5] = cutoff for positive-scoring molecules 3-fold increase, read-out: AK-based Prestwick Library Screening Results, S. aureus (fold increase in extracellular AK activity)
[6] = cutoff for positive-scoring molecules 3-fold increase, read-out: AK-based Prestwick Library Screening Results, E. cloacae (fold increase in extracellular AK activity)
[7] = cutoff for positive-scoring molecules 3-fold increase, read-out: AK-based Prestwick Library Screening Results, P. aeruginosa (fold increase in extracellular AK activity)
[8] = cutoff for positive-scoring molecules 3-fold increase, read-out: AK-based Prestwick Library Screening Results, K. pneumoniae (fold increase in extracellular AK activity)
[9] = planktonic A. baumannii, 384-well, cutoff for positive-scoring molecules 3-fold increase, read-out: AK-based Prestwick Library Screening Results: A. baumannii (increase in extracellular AK activity)
[10] = planktonic E. faecium, 384-well, cutoff for positive-scoring molecules 3-fold increase, read-out: AK-based Prestwick Library Screening Results: E. faecium (increase in extracellular AK activity)
[11] = planktonic S. aureus, 384-well, cutoff for positive-scoring molecules 3-fold increase, read-out: AK-based Prestwick Library Screening Results: S. aureus (increase in extracellular AK activity)
[12] = planktonic E. cloacae, 384-well, cutoff for positive-scoring molecules 3-fold increase, read-out: AK-based Prestwick Library Screening Results: E. cloacae (increase in extracellular AK activity)
[13] = planktonic E. coli, 50 μM final drug concentration, 384-well, cutoff for positive-scoring molecules 3-fold increase, read-out: AK-based Prestwick Library Screening Results: E. coli (increase in extracellular AK activity)
[14] = planktonic P. aeruginosa, 384-well, cutoff for positive-scoring molecules 3-fold increase, read-out: AK-based Prestwick Library Screening Results: P. aeruginosa (increase in extracellular AK activity)
[15] = planktonic K. pneumoniae, 384-well, cutoff for positive-scoring molecules 3-fold increase, read-out: AK-based Prestwick Library Screening Results: K. pneumoniae (increase in extracellular AK activity)
[16] = planktonic E. coli, 50 μM final drug concentration, […]

## N[C@@H](Cc1cc(I)c(Oc2ccc(O)c(I)c2)c(I)c1)C(=O)O [Liothyronine]
[1]; [3]
  fold induction at 50 µM: 1.1
E. faecium; [4]
  fold induction at 50 µM: 1.1
[2]; [5]
  fold induction at 50 µM: 1
E. cloacae; [6]
  fold induction at 50 µM: 1.6
E. coli; read-out: AK-based Prestwick Library Screening Results, E. coli (fold increase in extracellular AK activity)
  fold induction at 50 µM: 1.2
P. aeruginosa; [7]
  fold induction at 50 µM: 1.1
K. pneumoniae; [8]
  fold induction at 50 µM: 0.9

## NCCCC[C@H](N[C@@H](CCc1ccccc1)C(=O)O)C(=O)N1CCC[C@H]1C(=O)O [Lisinopril]
[1]; [9]
  fold induction at 50 µM: 1.3
E. faecium; [10]
  fold induction at 50 µM: 1
[2]; [11]
  fold induction at 50 µM: 4.3
E. cloacae; [12]
  fold induction at 50 µM: 1.5
E. coli; [13]
  fold induction at 50 µM: 1.2
P. aeruginosa; [14]
  fold induction at 50 µM: 1.2
K. pneumoniae; [15]
  fold induction at 50 µM: 1

## C[C@H](CCC(=O)O)[C@H]1CC[C@H]2[C@@H]3CC[C@@H]4C[C@H](O)CC[C@]4(C)[C@H]3CC[C@]12C [Lithocholic acid]
[1]; [3]
  fold induction at 50 µM: 1
E. faecium; [4]
  fold induction at 50 µM: 1.2
[2]; [5]
  fold induction at 50 µM: 1.1
E. cloacae; [6]
  fold induction at 50 µM: 1.7
E. coli; 50 μM final drug concentration, cutoff for positive-scoring molecules 3-fold increase, read-out: AK-based Prestwick Library Screening Results, E. coli (fold increase in extracellular AK activity)
  fold induction at 50 µM: 0.8
P. aeruginosa; [7]
  fold induction at 50 µM: 1
K. pneumoniae; [8]
  fold induction at 50 µM: 0.8

## CN1[C@@H](C[C@@H](O)c2ccccc2)CCC[C@H]1C[C@H](O)c1ccccc1.Cl [Lobelanidine hydrochloride]
[1]; planktonic A. baumannii, cutoff for positive-scoring molecules 3-fold increase
  AK-based Prestwick Library Screening Results, A. baumannii (increase in extracellular AK activity): 1.0
E. faecium; planktonic E. faecium, cutoff for positive-scoring molecules 3-fold increase
  AK-based Prestwick Library Screening Results, E. faecium (increase in extracellular AK activity): 0.9
[2]; planktonic S. aureus, cutoff for positive-scoring molecules 3-fold increase
  AK-based Prestwick Library Screening Results, S. aureus (increase in extracellular AK activity): 0.6
E. cloacae; planktonic E. cloacae, cutoff for positive-scoring molecules 3-fold increase
  AK-based Prestwick Library Screening Results, E. cloacae (increase in extracellular AK activity): 1.0
E. coli; [16]
  AK-based Prestwick Library Screening Results, E. coli (increase in extracellular AK activity): 1.0
P. aeruginosa; planktonic P. aeruginosa, cutoff for positive-scoring molecules 3-fold increase
  AK-based Prestwick Library Screening Results, P. aeruginosa (increase in extracellular AK activity): 1.0
K. pneumoniae; planktonic K. pneumoniae, cutoff for positive-scoring molecules 3-fold increase
  AK-based Prestwick Library Screening Results, K. pneumoniae (increase in extracellular AK activity): 0.8

## CN1[C@@H](CC(=O)c2ccccc2)CCC[C@H]1C[C@H](O)c1ccccc1.Cl [Lobeline alpha (−) hydrochoride]
[1]; planktonic A. baumannii, […]
  AK-based Prestwick Library Screening Results, A. baumannii (increase in extracellular AK activity): 0.8
E. faecium; planktonic E. faecium, […]
  AK-based Prestwick Library Screening Results, E. faecium (increase in extracellular AK activity): 0.9
[2]; planktonic S. aureus, […]
  AK-based Prestwick Library Screening Results, S. aureus (increase in extracellular AK activity): 0.8
E. cloacae; planktonic E. cloacae, […]
  AK-based Prestwick Library Screening Results, E. cloacae (increase in extracellular AK activity): 1.0
E. coli; [16]
  AK-based Prestwick Library Screening Results, E. coli (increase in extracellular AK activity): 1.0
P. aeruginosa; planktonic P. aeruginosa, […]
  AK-based Prestwick Library Screening Results, P. aeruginosa (increase in extracellular AK activity): 0.9
K. pneumoniae; planktonic K. pneumoniae, […]
  AK-based Prestwick Library Screening Results, K. pneumoniae (increase in extracellular AK activity): 0.7

## CCn1cc(C(=O)O)c(=O)c2cc(F)c(N3CCNC(C)C3)c(F)c21 (stereo not shown) [Lomefloxacin hydrochloride]
[1]; [9]
  fold induction at 50 µM: 3.8
E. faecium; [10]
  fold induction at 50 µM: 1.5
[2]; [11]
  fold induction at 50 µM: 3.4
E. cloacae; [12]
  fold induction at 50 µM: 3.5
E. coli; [13]
  fold induction at 50 µM: 26.8
P. aeruginosa; [14]
  fold induction at 50 µM: 30.2
K. pneumoniae; [15]
  fold induction at 50 µM: 1

## CN(C)C(=O)C(CCN1CCC(O)(c2ccc(Cl)cc2)CC1)(c1ccccc1)c1ccccc1 [Loperamide hydrochloride]
[1]; planktonic A. baumannii, 384-well, […], read-out: AK-based Prestwick Library Screening Results: A. baumannii (increase in extracellular AK activity)
  fold induction at 50 µM: 1.5
E. faecium; planktonic E. faecium, 384-well, […], read-out: AK-based Prestwick Library Screening Results: E. faecium (increase in extracellular AK activity)
  fold induction at 50 µM: 0.9
[2]; planktonic S. aureus, 384-well, […], read-out: AK-based Prestwick Library Screening Results: S. aureus (increase in extracellular AK activity)
  fold induction at 50 µM: 1
E. cloacae; planktonic E. cloacae, 384-well, […], read-out: AK-based Prestwick Library Screening Results: E. cloacae (increase in extracellular AK activity)
  fold induction at 50 µM: 1.5
E. coli; planktonic E. coli, 50 μM final drug concentration, 384-well, […], read-out: AK-based Prestwick Library Screening Results: E. coli (increase in extracellular AK activity)
  fold induction at 50 µM: 1.4
P. aeruginosa; planktonic P. aeruginosa, 384-well, […], read-out: AK-based Prestwick Library Screening Results: P. aeruginosa (increase in extracellular AK activity)
  fold induction at 50 µM: 1.2
K. pneumoniae; planktonic K. pneumoniae, 384-well, […], read-out: AK-based Prestwick Library Screening Results: K. pneumoniae (increase in extracellular AK activity)
  fold induction at 50 µM: 0.9

## CCCCCN(CCCCC)C(=O)C(CCC(=O)O)NC(=O)c1ccc(Cl)c(Cl)c1 (stereo not shown) [Lorglumide sodium salt]
[1]; planktonic, cutoff for positive-scoring molecules 3-fold increase, read-out: AK-based Prestwick Library Screening Results, A. baumannii (fold increase in extracellular AK activity)
  fold induction at 50 µM: 0.8
E. faecium; planktonic, cutoff for positive-scoring molecules 3-fold increase, read-out: AK-based Prestwick Library Screening Results, E. faecium (fold increase in extracellular AK activity)
  fold induction at 50 µM: 1
[2]; planktonic, cutoff for positive-scoring molecules 3-fold increase, read-out: AK-based Prestwick Library Screening Results, S. aureus (fold increase in extracellular AK activity)
  fold induction at 50 µM: 0.3
E. cloacae; planktonic, cutoff for positive-scoring molecules 3-fold increase, read-out: AK-based Prestwick Library Screening Results, E. cloacae (fold increase in extracellular AK activity)
  fold induction at 50 µM: 1.3
E. coli; 50 μM final drug concentration, planktonic, cutoff for positive-scoring molecules 3-fold increase, read-out: AK-based Prestwick Library Screening Results, E. coli (fold increase in extracellular AK activity)
  fold induction at 50 µM: 0.9
P. aeruginosa; planktonic, cutoff for positive-scoring molecules 3-fold increase, read-out: AK-based Prestwick Library Screening Results, P. aeruginosa (fold increase in extracellular AK activity)
  fold induction at 50 µM: 0.9
K. pneumoniae; planktonic, cutoff for positive-scoring molecules 3-fold increase, read-out: AK-based Prestwick Library Screening Results, K. pneumoniae (fold increase in extracellular AK activity)
  fold induction at 50 µM: 0.7

## CC[C@H](C)C(=O)O[C@H]1C[C@@H](C)C=C2C=C[C@H](C)[C@H](CC[C@@H]3C[C@@H](O)CC(=O)O3)[C@H]21 [Lovastatin]
[1]; planktonic A. baumannii, cutoff for positive-scoring molecules 3-fold increase, read-out: AK-based Prestwick Library Screening Results, A. baumannii (increase in extracellular AK activity)
  fold induction at 50 µM: 1
E. faecium; planktonic E. faecium, cutoff for positive-scoring molecules 3-fold increase, read-out: AK-based Prestwick Library Screening Results, E. faecium (increase in extracellular AK activity)
  fold induction at 50 µM: 1
[2]; planktonic S. aureus, cutoff for positive-scoring molecules 3-fold increase, read-out: AK-based Prestwick Library Screening Results, S. aureus (increase in extracellular AK activity)
  fold induction at 50 µM: 0.3
E. cloacae; planktonic E. cloacae, cutoff for positive-scoring molecules 3-fold increase, read-out: AK-based Prestwick Library Screening Results, E. cloacae (increase in extracellular AK activity)
  fold induction at 50 µM: 1.2
E. coli; planktonic E. coli, 50 μM final drug concentration, cutoff for positive-scoring molecules 3-fold increase, read-out: AK-based Prestwick Library Screening Results, E. coli (increase in extracellular AK activity)
  fold induction at 50 µM: 1
P. aeruginosa; planktonic P. aeruginosa, cutoff for positive-scoring molecules 3-fold increase, read-out: AK-based Prestwick Library Screening Results, P. aeruginosa (increase in extracellular AK activity)
  fold induction at 50 µM: 0.8
K. pneumoniae; planktonic K. pneumoniae, cutoff for positive-scoring molecules 3-fold increase, read-out: AK-based Prestwick Library Screening Results, K. pneumoniae (increase in extracellular AK activity)
  fold induction at 50 µM: 0.8

## CN1CCN(C2=Nc3ccccc3Oc3ccc(Cl)cc32)CC1 [Loxapine succinate]
[1]; [9]
  fold induction at 50 µM: 1
E. faecium; [10]
  fold induction at 50 µM: 0.9
[2]; [11]
  fold induction at 50 µM: 1.1
E. cloacae; [12]
  fold induction at 50 µM: 1.3
E. coli; [13]
  fold induction at 50 µM: 1
P. aeruginosa; [14]
  fold induction at 50 µM: 0.9
K. pneumoniae; [15]
  fold induction at 50 µM: 1

Source: patent publication US10004701B2, “Methods and compositions for treating infection” (UNIVERSITY OF ROCHESTER, priority 2012, dated 2018)
